Measured values reported in patent US20260199499A1, “ANTI-PDL1 ANTIBODY-DRUG CONJUGATE AND USE” (SHANGHAI HENLIUS BIOTECH, INC., priority 2023, published 2026).

How the values were obtained:
[1] = test system: human PDL1-positive gastric cancer LD1-0017-200636 PDX; assay: Anti-tumor effect, LD1-0017-200636 PDX xenograft; assay type: in vivo, NU/NU mice; conditions: free loaded drug, dose not given, day 21
Description: (§1) A human-derived PDL1-positive gastric cancer LD1-0017-200636 model was revived in NU/NU mice. Once the tumor had grown to 500-800 mm^3, the tumor tissue was surgically aseptically excised, and non-tumor tissues and necrotic tissues were removed. The tumor tissue was stripped and evenly cut into tissue blocks (about 30-60 mg) of about 3 mm×3 mm×3 mm in size, and then, which were inoculated subcutaneously on the right side of NU/NU mice. Once the average tumor volume of the mice for grouping reached 138.70 mm3, the mice were grouped randomly according to the size of the tumor volume, ensuring similar tumor volumes between groups. The day of grouping was defined as day 0. After the start of dosing, the body weight and tumor size of the mice were measured twice a week, and the mice were dosed once a week, for three doses. Clinical symptoms observed during the experiment were recorded. The tumor volume was calculated according to the following formula: tumor volume (mm3)=½×(a×b2) (wherein a represented the long diameter, and b represented the short diameter).

[2] = test system: human PDL1-positive colorectal cancer LD1-2013-362125 PDX; assay: Anti-tumor effect, LD1-2013-362125 PDX xenograft; assay type: in vivo, NU/NU mice; conditions: free loaded drug, dose not given, day 31
Description: as §1, with “colorectal” for “gastric”, “LD1-2013-362125” for “LD1-0017-200636”, “25-35” for “30-60”, “156.99” for “138.70”

[3] = test system: human PDL1-positive cervical cancer LD1-0010-200614 PDX; assay: Anti-tumor effect, LD1-0010-200614 PDX xenograft; assay type: in vivo, Balb/c nude mice; conditions: free loaded drug, dose not given, day 35
Description: as §1, with “cervical” for “gastric”, “LD1-0010-200614” for “LD1-0017-200636”, “Balb/c nude” for “NU/NU”, “25-35” for “30-60”, “146.74” for “138.70”

human dendritic cells = assay type: cell-based
Description: (§2) Since some human immune cells such as antigen-presenting cells (macrophages, dendritic cells, etc.) express PDL1, the immunotoxicity of PDL1-targeted antibody-conjugated drugs is an inevitable problem. Human dendritic cells and macrophages, after induced differentiation, were digested and viable cells were counted using Vi-Cell XR cytometer. The cell suspension was adjusted to an appropriate concentration with a culture medium. 80 μl/well of the cell suspension was added to a cell culture plate, which was supplemented with 500 IU/mL of IFN-γ. The test drug was diluted with a gradient (5-fold dilutions). 20 μl of each of the diluted test articles was taken and added to the cell suspension in the cell culture plate, and the cell culture plate was placed in an incubator and cultured for 96 hours. 50 μl/well of a CellTiter-Glo solution (purchased from Promega) that had been thawed in advance and equilibrated to room temperature was added according to CellTiter-Glo operation instructions. The wells were mixed uniformly with a microwell plate shaker for 2 minutes and maintained at room temperature for 10 minutes. The […] signal was measured using Envision 2104 plate reader. SGN-PDL1V was used as one of the control molecules and was disclosed in U.S. Patent No. US 20210101982 A1.

human macrophages = assay type: cell-based
Description: as §2

[4] = Preliminary pre-experiment, toxicity to mice; assay type: in vivo; conditions: dose of 8 mg/kg
Text: For ethical considerations, the […] was not set in the experimental design.

[5] = test system: human non-small cell lung cancer LU6437 PDX; assay: Anti-tumor effect, LU6437 PDX xenograft; assay type: in vivo, BALB/c nude mice; conditions: 3 mg/kg, once a week for three doses, day 21
Description: A revived tumor tissue was harvested from HuPrime® lung cancer xenograft model LU6437 tumor-bearing mice and cut into tumor blocks with a diameter of 2-3 mm, which were inoculated subcutaneously at the right anterior scapula of BALB/c nude mice. […] The average volume was 253.70 mm^3 in the actual groups. The day of grouping was defined as day 0. After the start of dosing, the mice were dosed once a week, for three doses, and the body weight and tumor size of the mice were measured twice a week. Clinical symptoms observed during the experiment were recorded. The tumor volume was calculated according to the following formula: tumor volume (mm3)=½×(a×b2) (wherein a represented the long diameter, and b represented the short diameter).

[6] = biological target: T1, PDL1 on PDL1-positive cells NCI-H292 and NCI-H441 (UniProt Q9NZQ7 19-290, limits assumed); assay: flow cytometry on NCI-H292 cells, goat anti-human IgG detection
T1 construct: whole, on cells; Human tumor cell lines; also called CD274; B7-H1
T1 sequence (Q9NZQ7 19-290 limits assumed): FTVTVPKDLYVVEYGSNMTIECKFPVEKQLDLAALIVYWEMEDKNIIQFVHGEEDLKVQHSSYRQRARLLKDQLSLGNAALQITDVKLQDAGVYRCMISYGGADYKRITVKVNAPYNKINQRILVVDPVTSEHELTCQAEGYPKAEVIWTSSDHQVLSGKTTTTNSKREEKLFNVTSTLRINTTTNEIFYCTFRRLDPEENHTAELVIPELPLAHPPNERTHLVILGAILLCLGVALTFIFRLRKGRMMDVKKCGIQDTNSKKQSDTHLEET

`CC[C@@]1(O)C(=O)OCc2c1cc1n(c2=O)Cc2c-1nc1cc3c(cc1c2CCCO)OCO3` [A1.3, (S)-7-ethyl-7-hydroxy-14-(3-hydroxypropyl)-10,13-dihydro-11H-[1,3]dioxolo[4,5-g]pyrano[3′,4′,6,7]indolizino[1,2-b]quinoline-8,11(7H)-dione] showed a TGI [1] of 34.12%, a TGI [2] of 37.16% and a TGI [3] of 56.5%.

In the case of “SGN-PDL1V: reference ADC of WO 2021067776 A1: SGN-PDL1V antibody moiety conjugated to MC-VC-PABC-MMAE [reference compound]”, the “concentration at which non-specific killing resulted” value (human dendritic cells) is reported as “above 20 nM”, the “concentration at which non-specific killing resulted” value (human macrophages) is reported as “above 20 nM” and the toxicity to mice [4] is reported as “severely lethal toxicity”. It also gave a TGI [5] of 24.11%.

B1: MAB20 (antibody, human IgG1, lambda, N297A, V domains shown)
VH: EVQLVQSGGGLVKPGGSLRLSCAASGFTFSSYTMNWVRQAPGKGLEWVSSISSGSDYLYYADSVKGRFTISRDNAKNSLYLQMNSLRAEDTAVYYCARNELRWYPQAGAFDRWGQGTMVTVSS
VL: QSVVTQPPSMSAAPGQRVTISCSGSSSYIESSYVGWYQQLPGTAPRLLIYDDDMRPSGIPDRFSGSKSGTSATLAITGLQTGDEADYYCEIWRSGLGGVFGGGTKLTVLS
notes: also called anti-PDL1 antibody MAB20; Anti-PDL1_mAb
B1: binds [6].
